Data as given in patent publication US4532343A, “Aromatic retinoic acid analogues” (SRI International, priority 1982, dated 1985).

Key:
[1] = tested on: Ornithine Decarboxylase; test: ornithine decarboxylase (ODC) assay: inhibition of induction of ODC by 12-O-tetradecanoylphorbol-13-acetate in mouse skin; assay type: in vivo, mouse (female Charles River CD-1); conditions: topical, 1 hour before TPA (17 nmol)
Method: (§1) The ODC assay measures a compound's ability to prevent the induction of ODC. The tracheal organ culture assay measures a compound's ability to reverse keratinization.
The ODC assay is carried out as follows. Female Charles River CD-1 mice from Charles River Breeding Laboratories, Wilmington, Massachusetts, are used (age 7 to 9 weeks). The dorsal hair of the mice is shaved 1 to 2 days before testing, and only mice showing no hair regrowth are used. A single dose of 12-O-tetradecanoylphorbol-13-acetate (TPA) (10.5 μg, 17 nmol) in 0.2 mL of acetone is applied topically to the back of each mouse. The test compound, at one of three dose levels (1.7, 17 and 170 nmol), dissolved in 0.2 mL of acetone is applied 1 hour before the TPA treatment to the test groups; the control group is treated with acetone alone. The mice are killed by cervical dislocation five hours after TPA treatment. Determinations are done in triplicate.
The epidermis is obtained from the sacrificed animals. To obtain sufficient material, the dorsal skins from 2 to 3 mice in each treatment group are pooled. The depilatory agent Nudit® (Helena Rubinstein, New York) is applied to the shaved area of the skin; after 5 minutes, it is washed off thoroughly with cold tap water. Then the skin is excised and plunged immediately into ice-cold water; it is then placed in a 55° C. water bath for 30 seconds and reimmersed in ice-cold water for at least another 30 seconds. The skin is placed epidermis side up on a cold plate, and the epidermis is scraped off with a razor blade. The pooled epidermal sheets are homogenized (Polytron PT-10 homogenizer) at 0° to 4° C. for 15-20 seconds in 50 mM sodium phosphate and 0.1 mM ethylenediaminetetraacetic acid (EDTA), at a volume of 1 mL/skin.
The supernatant fraction remaining after centrifugation of the homogenate at 10,000× g for 30 seconds at 0° C. is used for the enzyme assay. Enzyme activity is determined using the microassay for ODC as described by Verma and Boutwell to measure the release of ^14 CO2 from DL-[1-^14 C]-ornithine (58 mCi/mmol) after incubation with the 10,000× g supernatant. The incubations are carried out by decanting, with a Pasteur pipette, 100 μL of the supernatant containing 100 to 120 μg of protein into two or three 15-mL Corex tubes in a shaking water bath at 37° C. The assay mixture in the tubes consists of 50 μL of 100 mM sodium phosphate buffer (pH 7.2), 10 μL of 4 mM pyridoxal phosphate, 40 μL of 25 mM dithiothreitol, and 1 μL of 0.1 M EDTA. The center wells in the tubes are filled with 200 μL of a 2:1 solution (v/v) of ethanolamine:2-methoxyethanol. The reaction is started by adding 50 μL of substrate (0.5 μCi of DL-[1-^14 C]-ornithine in 2 mM cold ornithine) at 1-minute intervals by injection to each of the stoppered tubes. Incubations are routinely carried out at 37° C. for 30 to 60 minutes. The reaction is stopped by addition of 0.5 ml of 2 M citric acid, and incubation is continued for an additional hour without heating to ensure complete absorption of ^14 CO2.
Radioactivity is measured using a toluene-based scintillant (4 g of PPO and 50 mg of POPOP/L of toluene) in a Beckman LS-250 liquid scintillation counter. Enzyme activity is determined in triplicate and expressed as nanomoles of CO2 released in 30 minutes per milligram of protein. Enzyme activity is linear for the protein concentration used. The protein concentrations of the epidermal extracts are determined by the Lowry procedure, using bovine serum albumin as the standard.

[2] = tested on: Hamster Tracheal Organ Culture (keratinization); test: tracheal organ culture assay (reversal of keratinization in hamster tracheal organ culture); assay type: cell-based; conditions: for Reversal of Keratinization in Hamster Tracheal Organ Culture, Active/Total Cultures: active = neither keratin nor keratohyaline granules seen, or keratohyaline granules alone absent; for Reversal of Keratinization in Hamster Tracheal Organ Culture, Active/Total Cultures (%): percent of active cultures
Method: as §1
The tracheal organ culture assay is carried out as follows. Tracheas are taken from hamsters that are in very early stages of vitamin A deficiency and placed in organ culture. At the time of culture, the animals are still gaining weight; the tracheal epithelium is generally low columnar or cuboidal, with only occasional patches of squamous metaplasia. Each trachea is opened from the larynx to the carina along the membranous dorsal wall and cultured in a serum-free medium (CMRL-1066; with crystalline bovine insulin, 0.1 μg/ml; hydrocortisone hemisuccinate, 0.1 μg/ml; glutamine, 2 mM; penicillin, 100 units/ml; and streptomycin,100 μg/ml, added). Cultures are gassed with 50% oxygen, 45% nitrogen, and 5% CO2. The culture dishes are rocked at 35.5-36.0 degrees to allow the tracheas contact with both gas and medium. All tracheas are grown in medium containing no retinoid for the first 3 days. At the end of 3 days, some tracheas are harvested; almost all of these tracheas have significant squamous metaplasia, and approximately 60% have keratinized lesions. The remaining tracheas are then divided into different groups which are treated with either: (1) retinoid dissolved in dimethylsulfoxide (final concentration of DMSO in culture medium is never greater than 0.1%) or (2) an equivalent amount of DMSO alone. Culture medium is changed three times a week, and all of the remaining tracheas are harvested at the end of 10 days in culture. Tracheas are fixed in 10% buffered formalin and embedded in paraffin. Cross sections of five micrometers are made through the mid-portion, stained with hematoxylin and eosin, and then scored with a microscope for the presence of keratin and keratohyaline granules, both of which are found in approximately 90% of control cultures that received no retinoid for the entire 10 day culture period.

Row | Compound | Inhibition of Induction of Ornithine Decarboxylase by 12-O-Tetradecanoylphorbol-13-acetate in Mouse Skin, % Inhibition of Control ([1]; Dose 1.7 nmol) | Inhibition of Induction of Ornithine Decarboxylase by 12-O-Tetradecanoylphorbol-13-acetate in Mouse Skin, % Inhibition of Control ([1]; Dose 17 nmol) | Reversal of Keratinization in Hamster Tracheal Organ Culture, Active/Total Cultures ([2]; Conc 10^-8 M) | Reversal of Keratinization in Hamster Tracheal Organ Culture, Active/Total Cultures (%) ([2]; Conc 10^-8 M) | Reversal of Keratinization in Hamster Tracheal Organ Culture, Active/Total Cultures ([2]; Conc 10^-9 M) | Reversal of Keratinization in Hamster Tracheal Organ Culture, Active/Total Cultures (%) ([2]; Conc 10^-9 M) | Reversal of Keratinization in Hamster Tracheal Organ Culture, Active/Total Cultures ([2]; Conc 10^-10 M) | Reversal of Keratinization in Hamster Tracheal Organ Culture, Active/Total Cultures (%) ([2]; Conc 10^-10 M)
1 | CCOC(=O)c1ccc(/C=C(C)/C=C/C2=C(C)CCCC2(C)C)c(OC)c1 [Example 3, (E)-1-(4-carbethoxy-2-methoxyphenyl)-2-methyl-4-(2,6,6-trimethyl-1-cyclohexen-1-yl)-1,3-butadiene] | 21% | 39% | 7/7 | 100% | 5/7 | 71% | 4/7 | 57%
2 | CCOC(=O)c1ccc(/C(F)=C(C)/C=C/C2=C(C)CCCC2(C)C)cc1 [Example 1, (1Z,3E)-1-(4-carbethoxyphenyl)-1-fluoro-2-methyl-4-(2,6,6-trimethyl-1-cyclohexen-1-yl)-1,3-butadiene] | 56% | 82% | 11/12 | 92% | 10/12 | 83% | 6/13 | 46%
3 | CC1=C(/C=C/C(C)=C/c2ccc(C(=O)O)cc2F)C(C)(C)CCC1 [Example 6, (E)-1-(4-Carboxy-2-fluorophenyl)-2-methyl-4-(2,6,6-trimethyl-1-cyclohexen-1-yl)-1,3-butadiene] | 37% | 78% | 6/6 | 100% | 12/12 | 100% | 3/11 | 27%
4 | CC1=C(/C=C/C(C)=C(\F)c2ccc(C(=O)O)cc2)C(C)(C)CCC1 [Example 2, (1Z,3E)-1-(4-Carboxyphenyl)-1-fluoro-2-methyl-4-(2,6,6-trimethyl-1-cyclohexen-1-yl)-1,3-butadiene] | 70% | 80% | 13/13 | 100% | 12/13 | 92% | 5/13 | 38%
5 | CCOC(=O)c1ccc(/C=C(C)/C=C/C2=C(C)CCCC2(C)C)c(F)c1 [Example 5, (E)-1-(4-Carbethoxy-2-fluorophenyl)-2-methyl-4-(2,6,6-trimethyl-1-cyclohexen-1-yl)-1,3-butadiene] | 8% | 46% | 6/6 | 100% | 6/7 | 86% | 4/7 | 56%
